{"source": "patent US9144569B2", "about": "“Methods of administering an aromatase inhibitor, prostaglandin and GnRH for regulating ovulation in cattle” (UNIVERSITY OF SASKATCHEWAN, priority 2010, dated 2015)", "test": "Example I: plasma letrozole concentration (LC/MS/MS) and non-compartmental pharmacokinetics after single iv dose", "format": "in vivo, cattle", "settings": "for AUC(0-t): read-out: Area under the curve (AUClast); for Cmax: read-out: Maximal concentration (Cmax); for clearance: read-out: Systemic clearance (Cls) (converted); for half-life: read-out: Half-life (T1/2) (converted); for MRT: read-out: Mean residence time (MRT)", "method": "Heifers in which a CL was detected during the initial examination were given […] cloprostenol (PGF, Estrumate™, Schering-Plough Animal Health, Pointe-Claire, QC, Canada) intramuscularly (im) to induce regression of the CL and to synchronize ovulation. Heifers were examined daily by transrectal ultrasonography to detect ovulation. Transvaginal ultrasound-guided follicular aspiration of follicles ≧5 mm was performed five to eight days after ovulation to synchronize wave emergence. Heifers were examined daily by transrectal ultrasonography to detect follicular wave emergence, which was expected 1 to 1.5 days after follicular ablation. Four days after follicular ablation (approximately 2.5 days after follicular wave emergence), and at the time follicular dominance becomes apparent, heifers were assigned randomly to the following treatment groups and given a single intravenous dose of 1) 500 μg/kg of letrozole (high dose group, n=9), 2) 250 μg/kg of letrozole (medium dose group, n=10), 3) 125 μg/kg of letrozole (low dose group, n=10), or 4) 20 ml of phosphate buffered saline (PBS control group, n=10). For practical purposes, the dose of letrozole was calculated based on an average weight of 400 kg for all heifers. The average oral dose used in women (2.5-5 mg per day for 5 days) was used to estimate the medium dose for cattle. The high and low doses were set as double and half the medium dose, respectively. The day of treatment was defined as Day 0. For intravenous injection, letrozole was prepared in 95% ethanol at a final concentration of 5 mg per ml, resulting in an injection volume of 10-40 ml. The experiment was performed in four replicates (n=2-3 per group per replicate) and each heifer was used only once.\nBlood samples were collected by jugular or coccygeal venipuncture into 10 ml heparinized vacuum tubes (Becton Dickinson Vacutainer Systems, Franklin Lakes, N.J., USA). Blood samples were collected at 0, 0.25, 0.5, 1, 1.5, 2, 3, 4, 6, 8, 12, 24, 36, 48 hours post-treatment using an indwelling jugular catheter as previously described and daily thereafter to the first post-treatment ovulation. Blood samples were centrifuged at 1500×g for 20 minutes; plasma was separated and stored in plastic tubes at −20° C.\nPlasma concentrations of letrozole were determined using high performance liquid chromatography tandem mass spectrometry (LC/MS/MS). To extract letrozole from the samples, 250 μL of a buffer solution (0.1M ammonium) were added to 250 μL of plasma followed by the addition of 5 mL of methyl t-butyl ether (MTBE) and vortexed for 15 seconds. The organic layer was removed by pipetting and transferred to a fresh 15 mL plastic tube. This second tube was dried by gentle nitrogen gas flow. The dried extract was reconstituted in 1 mL of 100% ethanol, sonicated for 5 minutes and transferred to a labelled vial for further analysis. Separation was accomplished by HPLC (Agilent 1200, Santa Clara, Calif., USA) fitted with an analytical column (50×2.1 mm, 3 μm particle size; Thermo Scientific Betasil C18, Waltham, Mass., USA) operated at 35° C. Gradient conditions were used at a flow rate of 250 μL/min, starting at 85% A (0.1% acetic acid) and 15% B (0.1% acetic acid in acetonitrile). Initial conditions were held for 2 min and then ramped to 100% B at 6 min, held until 9 min, decreased to 0% B at 11 minutes, and returned to initial conditions at 13 minutes, and held constant until 15 minutes. Mass spectra were collected using a tandem mass spectrometer (Applied Bioscience SCIEX 3000, Foster City, Calif., USA) fitted with an electrospray ionization source, operated in the negative ionization mode. Chromatograms were recorded using multiple reaction monitoring (MRM) mode, where at least two transitions per-analyte were monitored. […]", "key": {"[1]": {"settings": "female, bovine, plasma, 125 ug/kg, 125 μg/kg single iv, n=9"}, "[2]": {"settings": "female, bovine, plasma, 250 ug/kg, 250 μg/kg single iv, n=9"}, "[3]": {"settings": "female, bovine, plasma, 500 ug/kg, 500 μg/kg single iv, n=9"}, "[4]": {"settings": "female, bovine, plasma, iv, 125 ug/kg, 125 μg/kg single iv, n=9"}, "[5]": {"settings": "female, bovine, plasma, iv, 250 ug/kg, 250 μg/kg single iv, n=9"}, "[6]": {"settings": "female, bovine, plasma, iv, 500 ug/kg, 500 μg/kg single iv, n=9"}, "[7]": {"settings": "female, bovine, plasma, iv, doses combined"}}, "note": "Where two headings read alike, the source gives them in different places."}
{"smiles": "N#Cc1ccc(C(c2ccc(C#N)cc2)n2cncn2)cc1", "note": "[Letrozole, letrozole]", "values": [{"measurement": "mean circulating level of letrozole during the first 96 hours", "setting": "250 μg/kg, single application", "value": "112 ± 16.26", "unit": "ng/mL"}, {"measurement": "Half-life (T1/2)", "setting": "doses combined", "value": "27.3 ± 0.42", "unit": "h"}, {"measurement": "AUC(0-t)", "setting": "[1]", "value": "8800 ± 720", "unit": "ng·h/mL"}, {"measurement": "Cmax", "setting": "[1]", "value": "1200 ± 250", "unit": "ng/mL"}, {"measurement": "clearance", "setting": "[1]", "value": 0.243, "unit": "mL/min/kg"}, {"measurement": "AUC(0-t)", "setting": "[2]", "value": "17300 ± 2000", "unit": "ng·h/mL"}, {"measurement": "Cmax", "setting": "[2]", "value": "1700 ± 180", "unit": "ng/mL"}, {"measurement": "clearance", "setting": "[2]", "value": 0.258, "unit": "mL/min/kg"}, {"measurement": "AUC(0-t)", "setting": "[3]", "value": "28100 ± 2150", "unit": "ng·h/mL"}, {"measurement": "Cmax", "setting": "[3]", "value": "2500 ± 370", "unit": "ng/mL"}, {"measurement": "clearance", "setting": "[3]", "value": 0.308, "unit": "mL/min/kg"}, {"measurement": "concentration at 96 hours", "setting": "female, bovine, plasma, intravenous, 250 μg/kg given in a single dose, read-out: mean concentration of letrozole in the circulation at 96 hours", "value": "43.7 ± 8.79", "unit": "ng/mL"}, {"measurement": "half-life", "setting": "[4]", "value": "26.9 ± 0.95", "unit": "h"}, {"measurement": "MRT", "setting": "[4]", "value": "31.7 ± 2", "unit": "h"}, {"measurement": "half-life", "setting": "[5]", "value": "26.6 ± 1.18", "unit": "h"}, {"measurement": "MRT", "setting": "[5]", "value": "33.7 ± 2.98", "unit": "h"}, {"measurement": "half-life", "setting": "[6]", "value": "28.5 ± 1.05", "unit": "h"}, {"measurement": "MRT", "setting": "[6]", "value": "35.8 ± 1.43", "unit": "h"}, {"measurement": "AUC(0-t)", "setting": "[7]", "value": "18200 ± 4030", "unit": "ng·h/mL"}, {"measurement": "half-life", "setting": "[7]", "value": 27, "unit": "h"}, {"measurement": "Cmax", "setting": "[7]", "value": "1800 ± 270", "unit": "ng/mL"}, {"measurement": "MRT", "setting": "[7]", "value": 34, "unit": "h"}, {"measurement": "clearance", "setting": "[7]", "value": 0.27, "unit": "mL/min/kg"}, {"measurement": "mean plasma letrozole concentration throughout the 8-day period", "setting": "high dose 500 μg/kg iv", "value": "0.63 ± 0.04", "unit": "µg/mL"}, {"measurement": "mean plasma letrozole concentration throughout the 8-day period", "setting": "low dose 125 μg/kg iv", "value": "0.27 ± 0.04", "unit": "µg/mL"}, {"measurement": "mean plasma letrozole concentration throughout the 8-day period", "setting": "medium dose 250 μg/kg iv", "value": "0.44 ± 0.04", "unit": "µg/mL"}]}
